From article PMC6689897, “Drugging an undruggable pocket on KRAS” (Proceedings of the National Academy of Sciences of the …, 2019) come the findings set out here.

One assay addresses T1, GTP-KRASG12D::CRAF (Homo sapiens, UniProt P01116, G12D).
T1 construct: KRAS (G12D) 1-169, N-terminal 6His-tag, C-terminal avi-tag was from Xtal; 6His-tag (N); purchased Xtal BioStructures, Inc
Kind of assay: Alpha Screen PPI assay. In kind it is biochemical. The note with it: duplicate.

For the next assay, the target named is T2, GTP-KRASwt::SOS1 (Homo sapiens, UniProt P01116).
T2 construct: biotin (attachment tag not described)
T2 sequence (P01116 1-188 isoform P01116-2): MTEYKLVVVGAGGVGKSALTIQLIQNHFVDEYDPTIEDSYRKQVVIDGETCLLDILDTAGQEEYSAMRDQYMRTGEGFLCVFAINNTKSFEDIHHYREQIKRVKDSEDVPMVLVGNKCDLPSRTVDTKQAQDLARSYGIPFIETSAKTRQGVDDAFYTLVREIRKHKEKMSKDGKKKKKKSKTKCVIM
Kind of assay: Alpha Screen PPI assay. In kind it is biochemical. The note with it: duplicate.

For the next assay, the target named is T3, GTP-KRASG12D::PI3Kα (Homo sapiens, UniProt P01116, G12D).
T3 construct: KRAS (G12D) 1-169, N-terminal 6His-tag, C-terminal avi-tag was from Xtal; 6His-tag (N); purchased Xtal BioStructures, Inc
T3 sequence (P01116 1-169 isoform P01116-2 G12D): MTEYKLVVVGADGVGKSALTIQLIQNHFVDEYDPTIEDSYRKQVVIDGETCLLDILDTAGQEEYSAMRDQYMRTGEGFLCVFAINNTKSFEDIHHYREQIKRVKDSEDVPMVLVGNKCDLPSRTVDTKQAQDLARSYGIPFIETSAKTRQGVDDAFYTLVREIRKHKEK
Kind of assay: Alpha Screen PPI assay. In kind it is biochemical. The note with it: duplicate, read-out: IC50 GTP-KRASG12D::PI3K.

The target in the next assay is KRAS (Homo sapiens, UniProt P01116, G12D). As to the kind of experiment: Alpha Screen PPI assays, summary over KRAS interactions (SOS1, CRAF, PI3Kα). In kind it is biochemical. The note with it: interaction not given. From the text:
Using biochemical assays, we investigated whether 1 inhibited 3 of the 4 PPIs important for KRAS cycling (Fig. 5 A, i–iii). Namely, 1) GDP-KRAS interaction with the catalytic site of SOS ([33]), 2) GTP-KRAS interaction with the allosteric site of SOS ([34]), and 3) GTP-KRAS interaction with downstream effectors (CRAF and PI3Kα). We were unable to establish a biochemical assay for the fourth intervention point, namely, 4) GTP-KRAS interaction with its GAPs (Fig. 5 A, iv). As a reference compound for these assays, we used the KRAS^G12C-specific covalent inhibitor ARS-1620 ([35]). Compound 1 inhibited all 3 RAS cycle intervention points (1 to 3) in a dose-dependent manner (Fig. 5 B–E) in the range of 100 to 770 nM (SI Appendix, Table S6).
(§1) 217 The coordinates and structure factors of the structures have been deposited at the
(§2) 218 Protein Data Bank with the accession codes PDB Code 6GJ5, 6GJ6, 6GJ7, 6GJ8.
(§3) 221 Measurements of various protein–protein interactions were performed using the Alpha
(§4) 222 Screen technology developed by Perkin Elmer. Recombinant RAS proteins (H-, N-, K-
(§5) 223 RAS variants; all KRAS variants are based on KRAS isoform 4B (uniprot id P01116-2);
(§6) 224 KRAS (G12D) 1-169, N-terminal 6His-tag, C-terminal avi-tag was from Xtal
(§7) 225 BioStructures, Inc., KRAS (G12C) 1-169, C-terminal avi-tag, biotinylated, mutations:
(§8) 226 C51S, C80L, C118S, NRAS(wt) 1-172, C-terminal avi-tag, biotinylated; HRAS(wt) 1-
(§9) 227 166, C-terminal avi-tag, biotinylated). Biotinylation was performed in vitro with
228 recombinant BirA biotin-protein ligase as recommended by the manufacturer (Avidity
229 LLC, Aurora, Colorado, USA). Interacting proteins such as SOS1 (564-1049, N-terminal
230 GST-tag, TEV cleavage site), cRaf (1-303, N-terminal GST-tag, TEV cleavage site) and
(§10) 231 PI3KA- RBD (160-317, N-term-HIS_GST-tag) were expressed as glutathione S […]
(§11) 245 for 60 min in the dark at room temperature. Single oxygen induced fluorescence was
(§12) 246 measured at an Enspire multimode plate reader (Perkin Elmer) according to the
(§13) 247 manufacturer’s recommendations. Data were analyzed using the GraphPad Prism data […]

The subject of a further assay is NCI-H358 cells. As to the kind of experiment: pAKT quantification (Meso Scale Discovery). In kind it is cell-based, human. The method, then:
as §1, §2, §3, §4, §5, §6, §7, §8, §9
228 recombinant BirA biotin-protein ligase as recommended by the manufacturer (Avidity […]
as §10, §11, §12, §13
313 added according to manufacturer’s instructions. Fluorescence intensity was determined
314 using a fluorescence reader (2030 VICTOR X5, Perkin Elmer). […]
319 MAPK pathway signaling (pERK, pAKT quantification) […]

Assay [1] concerns the target SOScat-catalyzed nucleotide exchange on RAS (Homo sapiens, UniProt P01116). As to the kind of experiment: SOS1 nucleotide exchange assay (BODIPY-GDP).
The target of another assay is GTP-KRASG12D::SOS1 (Homo sapiens, UniProt P01116, G12D). Kind of assay: KRASG12D::SOS1 GTP TR-FRET assay.
Chain of GTP-KRASG12D::SOS1 (P01116 1-169 isoform P01116-2 G12D): as above

Each structure is given as a SMILES string. Where “and” joins values, the source holds several entries; their conditions need not be identical. Equal values may be shown once.

T1 sequence (P01116 1-169 isoform P01116-2 G12D): as above
Chain of SOScat-catalyzed nucleotide exchange on RAS (P01116 1-169 isoform P01116-2 limits assumed): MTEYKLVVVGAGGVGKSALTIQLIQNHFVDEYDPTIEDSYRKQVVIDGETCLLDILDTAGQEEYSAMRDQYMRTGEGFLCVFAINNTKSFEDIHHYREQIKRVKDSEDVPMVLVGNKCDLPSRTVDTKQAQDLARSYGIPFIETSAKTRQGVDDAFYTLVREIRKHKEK
Chain of KRAS (P01116 1-169 G12D): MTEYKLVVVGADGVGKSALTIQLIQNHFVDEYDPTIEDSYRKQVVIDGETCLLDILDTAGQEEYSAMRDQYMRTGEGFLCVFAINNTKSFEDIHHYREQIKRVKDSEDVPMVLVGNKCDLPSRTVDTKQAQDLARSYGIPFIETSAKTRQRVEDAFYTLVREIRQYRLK

For orientation: IC50 means the point on the concentration scale where inhibition reaches its midpoint. In the case of `Cn1cnc(Cn2ccc3ccc(CNCc4[nH]c5ccccc5c4[C@H]4NC(=O)c5ccc(O)cc54)cc32)c1` [Compound 1], the IC50 is 770 nM and 180 nM at GTP-KRASG12D::CRAF; 490 nM against GTP-KRASwt::SOS1; 500 nM at GTP-KRASG12D::PI3Kα; 450 nM on KRAS. The pAKT levels entry with NCI-H358 cells (high serum conditions) is “no reduction of pAKT levels”; in the assay with NCI-H358 cells (starved 24 h low serum, 2 h compound, then EGF), “dose-dependently reduced”. Moreover, the SOScat-mediated exchange entry in assay [1] (highest concentrations) is on record as “full inhibition”. Also, in assay [1] (several concentrations), the SOS1-catalyzed nucleotide exchange result was “inhibits the rate of nucleotide exchange in a dose-dependent manner”.

The EC50 is the midpoint of the concentration-response curve. A lower EC50 goes with an effect from little substance. At GTP-KRASG12D::SOS1, `CN(C)Cc1[nH]c2ccccc2c1[C@H]1NC(=O)c2ccc(O)cc21` [Compound 18] registered an EC50 of 33000 nM and an IC50 of 33000 nM.
